# Data: patent US12590953B2, “Methods for screening cereblon modifying compounds” (CELGENE CORPORATION, priority 2018, dated 2026)
# Entries after “also recorded” stand apart in the source; their conditions may differ.
# Experiments:
# ZFP91 = ZFP91 immunohistochemistry in rabbit testis; type: in vivo; conditions: treated male rabbits (150 mg/kg)
# Protocol: Male New Zealand white rabbits were treated with vehicle (1% Carboxymethylcellulose in deionized water), or Thalidomide at either 30 or 150 mg/kg/day for 56 days to investigate testicular degeneration. Testis were collected 24 hours after the last dose, fixed in 10% NBF, processed, embedded in paraffin and sectioned at 4 microns for immunohistochemistry.
# Rabbit embryos were stained for SALL4, and mouse testis were stained for SALL4 and ZFP91. Immunohistochemistry (IHC) was performed on the Bond-III automated slide stainer (Leica Microsystems, Buffalo Grove, Ill.) using the Bond Polymer Refine Detection system (Leica Microsystems, DS9800). Formalin fixed paraffin embedded (FFPE) tissues were sectioned at four micron thick and deparaffinized on the Bond-Max instrument. Antigen retrieval was performed with Epitope Retrieval 2 (ER2, pH 9.0) for 20 min at 100° C. The slides were blocked for endogenous peroxidase activity with Peroxide Block for 5 minutes at room temperature. Sections were then incubated with the mouse monoclonal anti-SALL4 EE-30 antibody (Santa Cruz, sc-101147) at a 1:100 dilution for 60 min at room temperature, or with the rabbit monoclonal anti-ZFP91 antibody (Celgene custom clone 122-8-6) at 0.25 ug/ml. […]
# [1] = target: T1, SALL4 zinc finger domains / cereblon-CRL4 (Homo sapiens, UniProt Q96SW2+Q9UJQ4, G416A); test: In vitro ubiquitination of human SALL4 zinc fingers by human cereblon-CRL4; type: biochemical; conditions: compared with wild-type ZF2; with thalidomide
# T1 construct: Human cereblon-DDB1 (cereblon amino acids 40-442 and full length DDB1); The first zinc finger domain encompasses amino acid residues 405-432; ZZ-domain-6xHis-thrombin site (N, cleaved yes); made in house; host or cells: SF9 insect cells (cereblon-DDB1, Cul4A-Rbx1); E. coli BL21 (DE3) Star (MBP-zinc finger)
# T1 sequence (Q96SW2 40-442, stated change not applied): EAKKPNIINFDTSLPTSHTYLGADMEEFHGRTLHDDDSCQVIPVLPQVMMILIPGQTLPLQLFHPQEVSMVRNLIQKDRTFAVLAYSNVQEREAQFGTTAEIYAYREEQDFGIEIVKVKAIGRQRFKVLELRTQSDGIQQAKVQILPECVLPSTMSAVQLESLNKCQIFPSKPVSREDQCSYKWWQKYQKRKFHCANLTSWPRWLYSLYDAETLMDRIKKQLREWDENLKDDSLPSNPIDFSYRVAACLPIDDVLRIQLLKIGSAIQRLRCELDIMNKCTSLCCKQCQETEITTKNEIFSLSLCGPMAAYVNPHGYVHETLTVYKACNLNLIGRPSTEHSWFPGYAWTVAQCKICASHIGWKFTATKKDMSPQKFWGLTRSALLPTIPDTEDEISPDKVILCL
# T1 sequence (Q9UJQ4 405-432 G416A): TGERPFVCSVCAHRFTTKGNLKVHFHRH
# T1 sequence (Q16531 whole entry partner, the tested form may be a part): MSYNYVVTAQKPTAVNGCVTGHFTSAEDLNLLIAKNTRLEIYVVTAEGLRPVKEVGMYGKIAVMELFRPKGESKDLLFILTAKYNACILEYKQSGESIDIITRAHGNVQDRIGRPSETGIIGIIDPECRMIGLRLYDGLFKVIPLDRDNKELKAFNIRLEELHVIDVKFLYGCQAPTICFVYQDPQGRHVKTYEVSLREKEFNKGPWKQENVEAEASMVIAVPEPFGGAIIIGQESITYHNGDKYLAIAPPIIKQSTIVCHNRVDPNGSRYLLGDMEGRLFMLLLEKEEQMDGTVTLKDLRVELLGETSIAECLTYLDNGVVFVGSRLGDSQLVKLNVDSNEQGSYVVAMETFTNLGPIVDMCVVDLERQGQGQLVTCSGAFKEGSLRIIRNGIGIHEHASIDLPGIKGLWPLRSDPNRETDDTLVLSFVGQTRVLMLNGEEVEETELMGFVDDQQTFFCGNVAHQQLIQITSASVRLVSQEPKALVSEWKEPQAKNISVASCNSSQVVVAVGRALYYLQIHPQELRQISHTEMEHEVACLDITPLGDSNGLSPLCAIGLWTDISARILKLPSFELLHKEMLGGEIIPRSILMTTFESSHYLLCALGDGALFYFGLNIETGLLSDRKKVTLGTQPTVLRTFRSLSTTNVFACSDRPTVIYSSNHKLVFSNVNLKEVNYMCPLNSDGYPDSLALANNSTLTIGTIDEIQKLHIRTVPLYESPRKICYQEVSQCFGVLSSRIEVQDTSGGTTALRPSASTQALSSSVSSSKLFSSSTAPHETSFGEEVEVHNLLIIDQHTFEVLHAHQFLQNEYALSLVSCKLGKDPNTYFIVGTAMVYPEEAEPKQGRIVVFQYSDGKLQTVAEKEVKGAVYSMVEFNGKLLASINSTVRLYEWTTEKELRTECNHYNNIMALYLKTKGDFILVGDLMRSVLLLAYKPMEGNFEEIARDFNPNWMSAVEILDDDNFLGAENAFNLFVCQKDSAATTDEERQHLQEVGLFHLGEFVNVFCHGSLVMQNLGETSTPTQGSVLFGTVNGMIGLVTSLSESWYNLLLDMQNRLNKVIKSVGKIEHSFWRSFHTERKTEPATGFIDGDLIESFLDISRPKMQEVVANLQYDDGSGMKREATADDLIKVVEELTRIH
# T1 sequence (Q13619 whole entry partner, the tested form may be a part): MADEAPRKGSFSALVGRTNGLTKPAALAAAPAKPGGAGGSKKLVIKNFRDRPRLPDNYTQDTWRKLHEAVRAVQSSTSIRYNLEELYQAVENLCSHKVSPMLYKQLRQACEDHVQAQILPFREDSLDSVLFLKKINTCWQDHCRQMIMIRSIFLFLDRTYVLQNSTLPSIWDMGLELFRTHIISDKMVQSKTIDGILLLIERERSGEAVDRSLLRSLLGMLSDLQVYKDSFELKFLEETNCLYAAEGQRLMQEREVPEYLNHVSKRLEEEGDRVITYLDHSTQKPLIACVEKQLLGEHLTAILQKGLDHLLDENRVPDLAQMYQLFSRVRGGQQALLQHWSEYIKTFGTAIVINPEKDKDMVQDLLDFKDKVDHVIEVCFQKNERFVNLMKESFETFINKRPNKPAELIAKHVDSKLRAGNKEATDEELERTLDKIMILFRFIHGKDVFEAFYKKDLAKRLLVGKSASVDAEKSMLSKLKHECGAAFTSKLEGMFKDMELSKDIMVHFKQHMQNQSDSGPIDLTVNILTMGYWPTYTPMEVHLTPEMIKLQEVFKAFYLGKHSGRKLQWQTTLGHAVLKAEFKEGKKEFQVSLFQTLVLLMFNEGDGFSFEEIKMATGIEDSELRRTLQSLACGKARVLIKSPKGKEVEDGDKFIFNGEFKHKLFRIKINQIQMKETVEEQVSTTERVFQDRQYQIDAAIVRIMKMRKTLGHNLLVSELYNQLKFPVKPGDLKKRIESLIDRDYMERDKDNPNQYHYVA
# T1 sequence (P62877 whole entry partner, the tested form may be a part): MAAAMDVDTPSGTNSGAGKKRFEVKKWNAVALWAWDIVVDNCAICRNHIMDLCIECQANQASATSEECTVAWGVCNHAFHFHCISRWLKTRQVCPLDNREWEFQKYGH
# Protocol: Purified E1, E2, ubiquitin, Cul4A-Rbx1, cereblon-DDB1, and GSPT1 proteins were used to reconstitute the ubiquitination of MBP-fused WT and mutant proteins in vitro. Substrate proteins purified by maltose affinity resin (NEB) were incubated at an approximate concentration of 30 uM. Ubiquitination components described briefly: Human cereblon-DDB1 (cereblon amino acids 40-442 and full length DDB1) and 6×his-DDB1 alone were co-expressed in SF9 insect cells in the presence of 50 μM zinc acetate, and purified by nickel affinity resin (Qiagen), HiTrap ANX column ion exchange (GE Healthcare), and Sephacryl 400 16/60 size exclusion chromatography (GE healthcare). Human full length Cul4A and Rbx1 were co-expressed in SF9 insect cells and purified by nickel affinity resin and Superdex 200 16/60 size exclusion chromatography. Purified recombinant human Ube1 E1 (E-305), UbcH5a E2 (E2-616), and ubiquitin (U-100H) were purchased from R&D systems. Components were mixed to final concentrations of 10 mM ATP, 1 μM Ube1, 25 μM UbcH5a, 200 μM Ub, 1 μM Cul4-Rbx1, 25 μM GSPT1, and 1 μM cereblon-DDB1, with or without 100 μM compound as indicated in ubiquitination assay buffer (20 mM HEPES pH 7.5, 150 mM NaCl, 10 mM MgCl2). After preincubation of E1, E2, ATP and ubiquitin for 30 minutes, and separate pre-incubation of MBP-substrate, CRBN-DDB1, Cul4-Rbx1, and compound for 5 minutes at room temperature, ubiquitination reactions were started by mixing the two pre-incubations. Reactions were incubated at 30 C for 2 hours before separation by SDS-PAGE followed by coomassie staining or immunoblot analysis.
# SALL4 contains 7 zinc finger domains, 4 of which have a glycine at the same position as cereblon substrates Ikaros and Aiolos. In this example, four domains containing these 4 glycine-containing zinc fingers were tested for compound-dependent ubiquitination by cereblon-CRL4 in a fully purified, in vitro ubiquitination system (see FIG. 1). The first zinc finger domain encompasses amino acid residues 405-432, which has a sequence of […] (SEQ ID NO: 3). The second zinc finger domain encompasses amino acid residues 589-616, which has a sequence of […] (SEQ ID NO: 4). The third zinc finger domain encompasses amino acid residues 865-892, which has a sequence of […] (SEQ ID NO: 5). The fourth zinc finger domain encompasses amino acid residues 893-920, which has a sequence of […] (SEQ ID NO: 6). Ikaros zinc finger domain (amino acid residues 140-168) was used as a control, which has a sequence of […] (SEQ ID NO: 7).
# More specifically, individual zinc finger domains of SALL4 were expressed in E. coli and purified via an MBP tag. Purified zinc fingers were then tested in an in vitro ubiquitination assay for cereblon binding and ubiquitination. Purified zinc fingers were incubated with purified cereblon-CRL4 ubiquitin ligase complex and purified ubiquitination cascade components Uba1, UbcH5a, UbcH5b, ATP, and ubiquitin.
# Ikaros and Aiolos harbor this motif within a zinc finger domain. 4 of them contain a glycine at the position necessary to mediate cereblon binding (see FIG. 1B). The human version of these four individual zinc fingers were expressed and purified for testing in our in vitro cereblon-CRL4 ubiquitination assay (see FIG. 1C). […] The existence of preferred zinc finger domains is highly reminiscent of the cereblon substrates Ikaros and Aiolos, where a single zinc finger motif mediates cereblon recruitment and degradation.
smiles,measurement,setting,value
O=C1CCC(N2C(=O)c3ccccc3C2=O)C(=O)N1 (centres unmarked) [thalidomide],ZFP91 protein levels in testis,ZFP91,correspondingly depleted; also recorded: caused degradation of both ZFP91 and SALL4
same,Ubiquitination of G416A mutant SALL4 zinc finger 2,[1],significantly reduced upon mutation of the glycine to alanine; also recorded: significantly reduced ubiquitination
